{"source": "patent US10450336B2", "about": "(Los Alamos National Security, LLC, priority 2014, dated 2019)", "test": "radiolabeling kinetics of the ligands with Bi-207 (radio-TLC)", "conditions": "bismuth complexation, comparison among the four ligands", "protocol": "The radiolabeling kinetics of the ligands L^py, L^pyd, L^pyr, and L^pz with bismuth ions was examined using Bi-207 (t1/2=32 years) because it has a much longer half life than Bi-213. Solutions having concentrations of 1, 10, 100, and 1000 micromolar (“μM”) of each of the ligands were prepared. Each solution was combined with 3 kBq of Bi-207. The reaction temperature was ambient room temperature (21±2° C.). Aliquots of each reaction mixture were obtained during the reaction and analyzed by radio-TLC. The rates of reaction (i.e. the radiolabeling kinetics) between the bismuth ions and the ligands were dependent on the individual ligand and also on the concentration of the ligand. At a ligand concentration of 1 μM, a maximum of 50% labeling was observed after 60 minutes. At a ligand concentration of 1000 micromolar, the reaction was nearly 100% complete (i.e. 100% of the ligand was labeled with Bi-207) after 5 minutes. FIG. 3 provides a graph of the radiolabeling kinetics for the four ligands at a ligand concentration of 100 μM. […] By comparison, chelation of Bi-213 with the known ligands DOTA and CHX-DTPA requires heating to 90° C."}
{"smiles": "c1cnc(CN2CCN(Cc3cnccn3)CCN(Cc3cnccn3)CCN(Cc3cnccn3)CC2)cn1", "note": "[L^py, 1,4,7,10-Tetrakis(2-pyrazinylmethyl)-1,4,7,10-tetraazacyclododecane, reference compound]", "values": [{"measurement": "complexation kinetics (relative)", "value": "slowest"}]}
